Reference: patent US20100010219A1, “METHOD FOR PRODUCING PYRROLIDINE COMPOUND” (JAPAN TOBACCO INC., priority 2006, published 2010)
Where a name gives a salt, the structure may show the parent alone.

Molecular target: T1, human HSD-1 (recombinant HSD-1) (Homo sapiens, UniProt P28845)
T1 construct: made in house
Assay: HSD-1 activity inhibitory action in vitro (SPA, conversion of cortisone to cortisol)
Type: biochemical
Details: recombinant human HSD-1 expressed using baculovirus system; 10 nM 3H cortisone, 500 μM NADPH; room temperature 90 to 120 min; read-out: hHSD1 (IC50 (nM))

T1 sequence (P28845 whole entry): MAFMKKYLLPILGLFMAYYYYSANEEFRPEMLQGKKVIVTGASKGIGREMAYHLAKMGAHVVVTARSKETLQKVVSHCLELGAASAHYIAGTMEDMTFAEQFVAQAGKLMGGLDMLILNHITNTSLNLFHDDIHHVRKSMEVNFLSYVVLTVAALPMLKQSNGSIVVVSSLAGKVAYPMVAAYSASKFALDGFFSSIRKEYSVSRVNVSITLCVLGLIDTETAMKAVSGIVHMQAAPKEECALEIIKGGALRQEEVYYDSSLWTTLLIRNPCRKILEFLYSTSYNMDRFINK

IC50, < 30 nM:
CC(C)ONC(=O)N1CCC(n2ncc(C(=O)N3CCC(c4ccccc4C(F)(F)F)C3)c2C2(C)CC2)CC1 (centres unmarked) [Example 146, 1-{1-[1-(isopropoxycarbamoyl)piperidin-4-yl]-5-(1-methylcyclopropyl)-1H-pyrazole-4-carbonyl}-3-(2-trifluoromethylphenyl)pyrrolidine]
O=C(NCc1ccc(F)cc1)N1CCC(n2ncc(C(=O)N3CCC(c4ccccc4C(F)(F)F)C3)c2C2CC2)CC1 (centres unmarked) [Example 147, 1-{5-cyclopropyl-1-[1-(4-fluorobenzylcarbamoyl)piperidin-4-yl]-1H-pyrazole-4-carbonyl}-3-(2-trifluoromethylphenyl)pyrrolidine]
O=C(Nc1ccccc1O)N1CCC(n2ncc(C(=O)N3CC[C@@H](c4ccccc4C(F)(F)F)C3)c2C2CC2)CC1 [Example 53, 1-{5-cyclopropyl-1-[1-(2-hydroxyphenylcarbamoyl)piperidin-4-yl]-1H-pyrazole-4-carbonyl}-[(S)-3-(2-trifluoromethylphenyl)]pyrrolidine]
O=C(Nc1ccccc1F)N1CCC(n2ncc(C(=O)N3CCC(c4ccccc4OC(F)(F)F)C3)c2C2CC2)CC1 (centres unmarked) [Example 140, 1-{5-cyclopropyl-1-[1-(2-fluorophenylcarbamoyl)piperidin-4-yl]-1H-pyrazole-4-carbonyl}-3-(2-trifluoromethoxyphenyl)pyrrolidine]
CC1(c2c(C(=O)N3CCC(c4cccnc4)C3)cnn2C2CCN(C(=O)N3CCc4ccccc43)CC2)CC1 (centres unmarked) [Example 148, 1-{1-[1-(2,3-dihydroindole-1-carbonyl)piperidin-4-yl]-5-(1-methylcyclopropyl)-1H-pyrazole-4-carbonyl}-3-(pyridin-3-yl)pyrrolidine]
O=C(c1cnn(C2CCN(c3ncccc3Cl)CC2)c1C1CC1)N1CCC(c2cccnc2)C1 (centres unmarked) [Example 187, 1-{1-[1-(3-chloropyridin-2-yl)piperidin-4-yl]-5-cyclopropyl-1H-pyrazole-4-carbonyl}-3-(pyridin-3-yl)pyrrolidine]
CN(C)C(=O)CN1CCC(n2ncc(C(=O)N3CC[C@@H](c4ccccc4C(F)(F)F)C3)c2C2CC2)CC1 [Example 100, 1-[5-cyclopropyl-1-(1-dimethylcarbamoylmethylpiperidin-4-yl)-1H-pyrazole-4-carbonyl]-[(S)-3-(2-trifluoromethylphenyl)]pyrrolidine hydrochloride]
O=C(c1cnn(C2CCN(S(=O)(=O)CC(F)(F)F)CC2)c1C1CC1)N1CC[C@@H](c2ccccc2C(F)(F)F)C1 [Example 109, 1-{5-cyclopropyl-1-[1-(2,2,2-trifluoroethanesulfonyl)piperidin-4-yl]-1H-pyrazole-4-carbonyl}-[(S)-3-(2-trifluoromethylphenyl)]pyrrolidine]
CC1(c2c(C(=O)N3CCC(c4cccnc4)C3)cnn2C2CCN(C(=O)N3CCCCc4ccccc43)CC2)CC1 (centres unmarked) [Example 151, 1-{5-(1-methylcyclopropyl)-1-[1-(2,3,4,5-tetrahydrobenzo[b]azepine-1-carbonyl)piperidin-4-yl]-1H-pyrazole-4-carbonyl}-3-(pyridin-3-yl)pyrrolidine]
COC(=O)N1CCC(n2ncc(C(=O)N3CC[C@@H](c4ccccc4C(F)(F)F)C3)c2C2CC2)CC1 [Example 57, 1-[5-cyclopropyl-1-(1-methoxycarbonylpiperidin-4-yl)-1H-pyrazole-4-carbonyl]-[(S)-3-(2-trifluoromethylphenyl)]pyrrolidine]
O=C(COc1ccccc1)N1CCC(n2ncc(C(=O)N3CCC(c4cccnc4)C3)c2C2CC2)CC1 (centres unmarked) [Example 155, 1-{5-cyclopropyl-1-[1-(2-phenoxyacetyl)piperidin-4-yl]-1H-pyrazole-4-carbonyl}-3-(pyridin-3-yl)pyrrolidine]
CNC(=O)CN1CCC(n2ncc(C(=O)N3CC[C@@H](c4ccccc4C(F)(F)F)C3)c2C2CC2)CC1 [Example 95, 1-[5-cyclopropyl-1-(1-methylcarbamoylmethylpiperidin-4-yl)-1H-pyrazole-4-carbonyl]-[(S)-3-(2-trifluoromethylphenyl)]pyrrolidine hydrochloride]
O=C1CC[C@@H](C(=O)N2CCC(n3ncc(C(=O)N4CC[C@@H](c5ccccc5C(F)(F)F)C4)c3C3CC3)CC2)N1 [Example 74, 1-(5-cyclopropyl-1-{1-[(S)-5-oxopyrrolidine-2-carbonyl]piperidin-4-yl}-1H-pyrazole-4-carbonyl)-[(S)-3-(2-trifluoromethylphenyl)]pyrrolidine]
O=C(Nc1ccc(F)cc1F)N1CCC(n2ncc(C(=O)N3CCC(c4ccccc4Cl)C3)c2C2CC2)CC1 (centres unmarked) [Example 136, 3-(2-chlorophenyl)-1-{5-cyclopropyl-1-[1-(2,4-difluorophenylcarbamoyl)piperidin-4-yl]-1H-pyrazole-4-carbonyl}pyrrolidine]
O=C(c1cnn(C2CCN(C(=O)C3(c4ccc(F)cc4)CC3)CC2)c1C1CC1)N1CC[C@@H](c2ccccc2C(F)(F)F)C1 [Example 66, 1-(5-cyclopropyl-1-{1-[1-(4-fluorophenyl)cyclopropanecarbonyl]piperidin-4-yl}-1H-pyrazole-4-carbonyl)-[(S)-3-(2-trifluoromethylphenyl)]pyrrolidine]
NC(=O)c1ccc(N2CCC(n3ncc(C(=O)N4CCC(c5ccccc5C(F)(F)F)C4)c3C3CC3)CC2)cc1 (centres unmarked) [Example 165, 1-{1-[1-(4-carbamoylphenyl)piperidin-4-yl]-5-cyclopropyl-1H-pyrazole-4-carbonyl}-3-(2-trifluoromethylphenyl)pyrrolidine]
NC(=O)CN1CCC(n2ncc(C(=O)N3CC[C@@H](c4ccccc4C(F)(F)F)C3)c2C2CC2)CC1 [Example 94, 1-[1-(1-carbamoylmethylpiperidin-4-yl)-5-cyclopropyl-1H-pyrazole-4-carbonyl]-[(S)-3-(2-trifluoromethylphenyl)]pyrrolidine hydrochloride]
O=C(O)c1ccc(N2CCC(n3ncc(C(=O)N4CCC(c5ccccc5C(F)(F)F)C4)c3C3CC3)CC2)s1 (centres unmarked) [Example 115, 5-(4-{5-cyclopropyl-4-[3-(2-trifluoromethylphenyl)pyrrolidine-1-carbonyl]pyrazol-1-yl}piperidin-1-yl)thiophene-2-carboxylic acid]
O=C(c1cnn(C2CCN(C(=O)N3CCC(O)CC3)CC2)c1C1CC1)N1CC[C@@H](c2ccccc2C(F)(F)F)C1 [Example 14, 1-{5-cyclopropyl-1-[1-(4-hydroxypiperidine-1-carbonyl)piperidin-4-yl]-1H-pyrazole-4-carbonyl}-[(S)-3-(2-trifluoromethylphenyl)]pyrrolidine]
O=C(c1cnn(C2CCN(C(=O)N3CC(CO)C3)CC2)c1C1CC1)N1CC[C@@H](c2ccccc2C(F)(F)F)C1 [Example 28, 1-{5-cyclopropyl-1-[1-(3-hydroxymethylazetidine-1-carbonyl)piperidin-4-yl]-1H-pyrazole-4-carbonyl}-[(S)-3-(2-trifluoromethylphenyl)]pyrrolidine]
